Where “and” joins values, the source holds several entries; their conditions need not be identical. Equal values may be shown once. Toxic doses and inconclusive results are not listed. Rule for the calls: active = survival T/C of 150% or more; inactive = T/C below 125% in these data.
System: P388 leukemia ip, CD2F1 mice, survival T/C
Experiment: NCI In Vivo Anticancer Drug Screen. Data for tumor model P388 Leukemia (intraperitoneal) in CD2F1 (CDF1) mice
Details: endpoint: median survival time, higher = longer survival
How it was run: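 Mice carrying the transplanted tumor received test compound or vehicle. Survival was recorded in each group, and the value is the treated-group measurement divided by that of the vehicle-treated control group.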

[1] = dose: 60.0 mg/kg/injection, schedule: Q01DX005 (ip), vehicle: saline with Tween-80
[2] = dose: 120.0 mg/kg/injection, schedule: Q01DX005 (ip), vehicle: saline with Tween-80
[3] = dose: 240.0 mg/kg/injection, schedule: Q01DX005 (ip), vehicle: saline with Tween-80
[4] = dose: 50.0 mg/kg/injection, schedule: Q01DX005 (ip), vehicle: saline with Tween-80
[5] = dose: 100.0 mg/kg/injection, schedule: Q01DX005 (ip), vehicle: saline with Tween-80
[6] = dose: 50.0 mg/kg/injection, schedule: Q01DX005 (ip), vehicle: Klucel (hydroxypropylcellulose) (HPC)
[7] = dose: 100.0 mg/kg/injection, schedule: Q01DX005 (ip), vehicle: Klucel (hydroxypropylcellulose) (HPC)
[8] = dose: 200.0 mg/kg/injection, schedule: Q01DX005 (ip), vehicle: Klucel (hydroxypropylcellulose) (HPC)
[9] = dose: 100.0 mg/kg/injection, schedule: Q04DX003 (ip), vehicle: saline with Tween-80
[10] = dose: 200.0 mg/kg/injection, schedule: Q04DX003 (ip), vehicle: saline with Tween-80
[11] = dose: 50.0 mg/kg/injection, schedule: Q01DX009 (ip), vehicle: saline
[12] = dose: 100.0 mg/kg/injection, schedule: Q01DX009 (ip), vehicle: saline

Measured: T/C

Cc1ccc(NCCCN2CCN(CCCNc3ccc(C)c4sc5ccccc5c(=O)c34)CC2)c2c(=O)c3ccccc3sc12
inactive: dose: 0.5 mg/kg/injection, schedule: Q01DX005 (ip), vehicle: saline with Tween-80 97 % of control | dose: 1.0 mg/kg/injection, schedule: Q01DX005 (ip), vehicle: saline with Tween-80 88 % of control | dose: 2.0 mg/kg/injection, schedule: Q01DX005 (ip), vehicle: saline with Tween-80 97 % of control | dose: 4.0 mg/kg/injection, schedule: Q01DX005 (ip), vehicle: saline with Tween-80 90 % of control

CC(C)(C)N=C(CCNC1CCCCC1)Nc1cccc(C(F)(F)F)c1
inactive: dose: 25.0 mg/kg/injection, schedule: Q01DX001 (ip), vehicle: saline 98 % of control | dose: 50.0 mg/kg/injection, schedule: Q01DX001 (ip), vehicle: saline 101 % of control | dose: 100.0 mg/kg/injection, schedule: Q01DX001 (ip), vehicle: saline with Tween-80 101 % of control | dose: 100.0 mg/kg/injection, schedule: Q01DX001 (ip), vehicle: saline 113 % of control

CCCCC(CN(C)C)C(=O)/C=C/c1ccccc1 (centres undefined)
inactive: dose: 60.0 mg/kg/injection, schedule: Q01DX005 (ip), vehicle: saline 109 % of control | dose: 120.0 mg/kg/injection, schedule: Q01DX005 (ip), vehicle: saline 123 % of control

CC(=O)Nc1ccc(C(=O)C(C)=O)cc1
inactive: dose: 50.0 mg/kg/injection, schedule: Q01DX009 (ip), vehicle: saline with Tween-80 100 % of control | dose: 100.0 mg/kg/injection, schedule: Q01DX009 (ip), vehicle: saline with Tween-80 104 % of control | dose: 200.0 mg/kg/injection, schedule: Q01DX009 (ip), vehicle: saline with Tween-80 97 % of control

Cc1[nH]c(/N=C/c2ccc(N(C)C)cc2)c(C#N)c1C
inactive: [1] 91 % of control | [2] 90 % of control | [3] 97 % of control

Cc1ccc2ccccc2[n+]1CC(=O)c1ccc2c(c1)OCO2
inactive: [4] 110 % of control | [5] 105 % of control | dose: 200.0 mg/kg/injection, schedule: Q01DX005 (ip), vehicle: saline with Tween-80 103 % of control

CNC(=O)OCC1(OC(=O)NC)OC(COC(=O)NC)(OC(=O)NC)C(OC(=O)NC)C1OC(=O)NC (centres undefined)
inactive: dose: 50.0 mg/kg/injection, schedule: Q01DX005 (ip), vehicle: saline 104 % of control | dose: 100.0 mg/kg/injection, schedule: Q01DX005 (ip), vehicle: saline 91 % of control | dose: 200.0 mg/kg/injection, schedule: Q01DX005 (ip), vehicle: saline 101 % of control

CC(C)NC(=O)OCc1c(COC(=O)NC(C)C)c([N+](=O)[O-])n2c1CCC2
inactive: dose: 25.0 mg/kg/injection, schedule: Q01DX005 (ip), vehicle: Klucel (hydroxypropylcellulose) (HPC) 95 % of control | [6] 99 % of control | [7] 99 % of control and 97 % of control | [8] 104 % of control and 94 % of control | dose: 400.0 mg/kg/injection, schedule: Q01DX005 (ip), vehicle: Klucel (hydroxypropylcellulose) (HPC) 100 % of control

Cn1c(=O)c2nc(-c3cccc([N+](=O)[O-])c3)cnc2n(C)c1=O
inactive: dose: 100.0 mg/kg/injection, schedule: Q04DX002 (ip), vehicle: Klucel (hydroxypropylcellulose) (HPC) 89 % of control | dose: 200.0 mg/kg/injection, schedule: Q04DX002 (ip), vehicle: Klucel (hydroxypropylcellulose) (HPC) 95 % of control | dose: 400.0 mg/kg/injection, schedule: Q04DX002 (ip), vehicle: Klucel (hydroxypropylcellulose) (HPC) 100 % of control

C/C(=N\NC(N)=O)c1ccc(Cl)c(-n2cccc2)c1
inactive: [6] 92 % of control | [7] 91 % of control | [8] 94 % of control

O=c1c2ccccc2c2ccccc2n1O
inactive: dose: 25.0 mg/kg/injection, schedule: Q04DX003 (ip), vehicle: saline with Tween-80 99 % of control | dose: 50.0 mg/kg/injection, schedule: Q04DX003 (ip), vehicle: saline with Tween-80 99 % of control | [9] 97 % of control | [10] 97 % of control

O=S1(=O)CCN(CCCc2ccccc2)CC1
inactive: dose: 50.0 mg/kg/injection, schedule: Q01DX009 (ip), vehicle: Klucel (hydroxypropylcellulose) (HPC) 102 % of control | dose: 100.0 mg/kg/injection, schedule: Q01DX009 (ip), vehicle: Klucel (hydroxypropylcellulose) (HPC) 105 % of control | dose: 200.0 mg/kg/injection, schedule: Q01DX009 (ip), vehicle: Klucel (hydroxypropylcellulose) (HPC) 104 % of control

CNc1nc(-c2ccc(C(C)(C)C)cc2)c(-c2ccc(C(C)(C)C)cc2)[nH]1
inactive: dose: 25.0 mg/kg/injection, schedule: Q04DX002 (ip), vehicle: saline with Tween-80 117 % of control and 96 % of control | dose: 50.0 mg/kg/injection, schedule: Q04DX002 (ip), vehicle: saline with Tween-80 107 % of control and 121 % of control

O=[N+]([O-])c1cccnc1N=Nc1c(O)[nH]c2ccccc12
inactive: [1] 100 % of control | [2] 101 % of control | [3] 110 % of control

O=[N+]([O-])c1ccc(/C=C/C=C/C=C/C=C/c2ccc(S(=O)(=O)F)cc2Cl)c(Cl)c1
inactive: dose: 15.0 mg/kg/injection, schedule: Q01DX005 (ip), vehicle: saline with Tween-80 99 % of control | dose: 30.0 mg/kg/injection, schedule: Q01DX005 (ip), vehicle: saline with Tween-80 104 % of control | [1] 92 % of control and 98 % of control

Cc1ccccc1Nc1nc(-c2ccccc2)nc(N)c1N=O
inactive: dose: 100.0 mg/kg/injection, schedule: Q04DX003 (ip), vehicle: saline 100 % of control | dose: 200.0 mg/kg/injection, schedule: Q04DX003 (ip), vehicle: saline 98 % of control | dose: 400.0 mg/kg/injection, schedule: Q04DX003 (ip), vehicle: saline 98 % of control

O=C(O)CC1(C(=O)O)CCC(OCc2ccccc2)CC1 (centres undefined)
inactive: [11] 102 % of control | [12] 92 % of control

CCCCN(CCCC)c1cc(C(=O)CCCCCN)c2ccccc2n1
inactive: dose: 6.25 mg/kg/injection, schedule: Q01DX005 (ip), vehicle: saline 97 % of control | dose: 12.5 mg/kg/injection, schedule: Q01DX005 (ip), vehicle: saline 90 % of control | dose: 25.0 mg/kg/injection, schedule: Q01DX005 (ip), vehicle: saline 90 % of control and 94 % of control

Clc1ccc(-c2ncnc3c2Cc2ccccc2-3)cc1
inactive: [9] 104 % of control | [10] 100 % of control | dose: 400.0 mg/kg/injection, schedule: Q04DX003 (ip), vehicle: saline with Tween-80 104 % of control

N#C/C(=C\c1cccs1)C(N)=S
inactive: [11] 100 % of control | [12] 102 % of control | dose: 200.0 mg/kg/injection, schedule: Q01DX009 (ip), vehicle: saline 100 % of control

CC(=O)NNC(=O)c1ccc2ccccc2n1
inactive: dose: 50.0 mg/kg/injection, schedule: Q01DX009 (ip), vehicle: saline sonified 100 % of control | dose: 100.0 mg/kg/injection, schedule: Q01DX009 (ip), vehicle: saline sonified 104 % of control

CCOC(=O)C1SC(=S)N(c2ccccc2)C1N (centres undefined)
inactive: dose: 12.5 mg/kg/injection, schedule: Q01DX009 (ip), vehicle: saline 98 % of control | dose: 25.0 mg/kg/injection, schedule: Q01DX009 (ip), vehicle: saline 104 % of control | [11] 105 % of control and 86 % of control

Cc1cccc(NC(=S)/N=C(\SCc2ccccc2)N(C)c2ccccc2)c1
inactive: [4] 90 % of control | [5] 93 % of control

From PubChem BioAssay AID330 (DTP/NCI, 2004)
